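Grown in 96-well plates, cells were treated for 48 hours with each compound at five concentrations. Insufficient inhibition: endpoint recorded as highest concentration tested. Abbreviation: GI50, concentration required for 50% inhibition of growth.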 The source made the active and inactive calls. Rule as the data show it: active = GI50 up to about 1.1 µM and inactive = higher.
Assays:
Experiment in all cases: NCI anticancer screen, dose series, 48 h
HL-60 = test system: HL-60
NCI-H226 = test system: NCI-H226
HOP-62 = test system: HOP-62
SF-295 = test system: SF-295
T47D = test system: T47D
IGROV-1 = test system: IGROV-1
SNB-75 = test system: SNB-75
DU-145 = test system: DU-145
SF-268 = test system: SF-268
COLO 205 = test system: COLO 205
OVCAR-8 = test system: OVCAR-8
RPMI-8226 = test system: RPMI-8226
K562 = test system: K562
SNB-19 = test system: SNB-19
OVCAR-4 = test system: OVCAR-4
U-251 = test system: U-251
UACC-257 = test system: UACC-257
UACC-62 = test system: UACC-62
NCI-H460 = test system: NCI-H460

Measured: GI50

CCN(/C=C1/C(=O)C(c2ccccc2)N(c2ccccc2)C1=O)CC (stereo not given)
inactive: HL-60 > 10 µM | NCI-H226 > 10 µM | HOP-62 > 10 µM | SF-295 > 10 µM | T47D > 10 µM | IGROV-1 > 10 µM | SNB-75 6.44 µM | DU-145 > 10 µM | SF-268 > 10 µM | COLO 205 > 10 µM | OVCAR-8 > 10 µM | RPMI-8226 > 10 µM | K562 > 10 µM | SNB-19 > 10 µM | OVCAR-4 > 10 µM | U-251 > 10 µM | UACC-257 > 10 µM | UACC-62 > 10 µM | NCI-H460 > 10 µM

CCOC(=O)c1cn(CC)c2ccc3ccsc3c2c1=O
inactive: HL-60 > 100 µM | NCI-H226 > 100 µM | HOP-62 > 100 µM | SF-295 > 100 µM | T47D > 100 µM | IGROV-1 > 100 µM | SNB-75 69.5 µM | DU-145 > 100 µM | SF-268 > 100 µM | COLO 205 > 100 µM | OVCAR-8 > 100 µM | RPMI-8226 > 100 µM | K562 > 100 µM | SNB-19 > 100 µM | OVCAR-4 > 100 µM | U-251 5.46 µM | UACC-257 > 100 µM | UACC-62 > 100 µM | NCI-H460 > 100 µM

COC(=O)Cc1c2n(c3ccccc13)C(=O)N1c3ccccc3C(CC(=O)OC)C21 (stereo not given)
inactive: HL-60 3.89 µM | NCI-H226 > 100 µM | HOP-62 17.4 µM | SF-295 18.8 µM | T47D 76 µM | IGROV-1 7.41 µM | SNB-75 7.45 µM | DU-145 > 100 µM | SF-268 39.5 µM | COLO 205 87.3 µM | OVCAR-8 31.8 µM | RPMI-8226 > 100 µM | K562 > 100 µM | SNB-19 18.1 µM | OVCAR-4 10.7 µM | U-251 28.3 µM | UACC-257 > 100 µM | UACC-62 23.5 µM | NCI-H460 11.6 µM

O=C(O)C(F)(OC(F)(F)C(F)(OC(F)(F)C(F)(F)C(F)(F)F)C(F)(F)F)C(F)(F)F (stereo not given)
inactive: HL-60 > 100 µM | NCI-H226 > 100 µM | HOP-62 > 100 µM | SF-295 > 100 µM | T47D > 100 µM | IGROV-1 > 100 µM | SNB-75 > 100 µM | DU-145 > 100 µM | SF-268 > 100 µM | COLO 205 > 100 µM | OVCAR-8 > 100 µM | RPMI-8226 > 100 µM | K562 > 100 µM | SNB-19 > 100 µM | OVCAR-4 > 100 µM | U-251 > 100 µM | UACC-257 > 100 µM | UACC-62 > 100 µM | NCI-H460 > 100 µM

O=C(N/N=C(COc1ccc([N+](=O)[O-])cc1)\N=C\c1ccncc1)c1ccncc1
inactive: HL-60 > 100 µM | NCI-H226 > 100 µM | HOP-62 > 100 µM | SF-295 > 100 µM | T47D > 100 µM | IGROV-1 > 100 µM | SNB-75 94.6 µM | DU-145 > 100 µM | SF-268 > 100 µM | COLO 205 > 100 µM | OVCAR-8 60.1 µM | RPMI-8226 > 100 µM | K562 > 100 µM | SNB-19 > 100 µM | OVCAR-4 > 100 µM | U-251 > 100 µM | UACC-257 > 100 µM | UACC-62 > 100 µM | NCI-H460 > 100 µM

O=[N+]([O-])c1ccc(N/N=C/CC(O)(C(F)(F)F)C(F)(F)F)c([N+](=O)[O-])c1
inactive: HL-60 4.07 µM | NCI-H226 3.72 µM | HOP-62 4.17 µM | SF-295 3.58 µM | T47D 3.21 µM | IGROV-1 4.47 µM | SNB-75 > 10 µM | DU-145 3.1 µM | SF-268 4.26 µM | COLO 205 3.67 µM | OVCAR-8 4.23 µM | RPMI-8226 2.76 µM | K562 3.55 µM | SNB-19 5.04 µM | OVCAR-4 4.99 µM | U-251 3.48 µM | UACC-257 3.65 µM | UACC-62 4.06 µM | NCI-H460 2.97 µM

CC1(C)OCC(C2OC3OC(C)(C)OC3C2N)O1 (stereo not given)
inactive: HL-60 > 100 µM | NCI-H226 > 100 µM | HOP-62 > 100 µM | SF-295 > 100 µM | T47D > 100 µM | IGROV-1 > 100 µM | SNB-75 > 100 µM | DU-145 > 100 µM | SF-268 > 100 µM | COLO 205 > 100 µM | OVCAR-8 > 100 µM | RPMI-8226 > 100 µM | K562 > 100 µM | SNB-19 > 100 µM | OVCAR-4 > 100 µM | U-251 > 100 µM | UACC-257 > 100 µM | UACC-62 > 100 µM | NCI-H460 > 100 µM

CC(=O)Nc1nc(Cl)cc(NCC2(CO)CCC2)n1
inactive: HL-60 > 100 µM | NCI-H226 > 100 µM | HOP-62 > 100 µM | SF-295 > 100 µM | T47D > 100 µM | IGROV-1 > 100 µM | SNB-75 > 100 µM | DU-145 > 100 µM | SF-268 > 100 µM | COLO 205 > 100 µM | OVCAR-8 > 100 µM | RPMI-8226 > 100 µM | K562 > 100 µM | SNB-19 > 100 µM | OVCAR-4 > 100 µM | U-251 > 100 µM | UACC-257 > 100 µM | UACC-62 > 100 µM | NCI-H460 > 100 µM

CC1=C(O)C(=O)c2ccccc2C1=O
inactive: HL-60 6.82 µM | NCI-H226 > 100 µM | HOP-62 > 100 µM | SF-295 49.4 µM | T47D > 100 µM | IGROV-1 80.4 µM | SNB-75 44.3 µM | DU-145 64.9 µM | SF-268 94.6 µM | COLO 205 > 100 µM | OVCAR-8 > 100 µM | RPMI-8226 18.6 µM | K562 78.5 µM | SNB-19 > 100 µM | OVCAR-4 > 100 µM | U-251 34 µM | UACC-257 47.3 µM | UACC-62 39.3 µM | NCI-H460 43.6 µM

O=[N+]([O-])c1c(F)c(F)c2c(c1F)N(CCCCCl)c1ccccc1S2
inactive: HL-60 2.44 µM | NCI-H226 17.7 µM | HOP-62 14.3 µM | SF-295 16.6 µM | T47D 12.4 µM | IGROV-1 2.27 µM | SNB-75 6.46 µM | DU-145 13.2 µM | SF-268 6.04 µM | COLO 205 14.4 µM | OVCAR-8 3.16 µM | RPMI-8226 3.47 µM | K562 2.05 µM | SNB-19 7.69 µM | OVCAR-4 8.57 µM | U-251 12.7 µM | UACC-257 11.4 µM | UACC-62 13.9 µM | NCI-H460 5.01 µM

From ChEMBL document CHEMBL1201862, “PubChem BioAssay data set” (2004)
